Data published in ChEMBL document CHEMBL1201862, “PubChem BioAssay data set” (2004).
Activity calls are given as the source filed them.

How the values were obtained:
[1] = biological target: T1, High affinity choline transporter 1 (Homo sapiens, UniProt Q9GZV3); assay: CHT inhibitors, dose response, cell-based, 5-point CRC, membrane potential dye (AID 504840); assay type: functional
T1 sequence (Q9GZV3 whole entry): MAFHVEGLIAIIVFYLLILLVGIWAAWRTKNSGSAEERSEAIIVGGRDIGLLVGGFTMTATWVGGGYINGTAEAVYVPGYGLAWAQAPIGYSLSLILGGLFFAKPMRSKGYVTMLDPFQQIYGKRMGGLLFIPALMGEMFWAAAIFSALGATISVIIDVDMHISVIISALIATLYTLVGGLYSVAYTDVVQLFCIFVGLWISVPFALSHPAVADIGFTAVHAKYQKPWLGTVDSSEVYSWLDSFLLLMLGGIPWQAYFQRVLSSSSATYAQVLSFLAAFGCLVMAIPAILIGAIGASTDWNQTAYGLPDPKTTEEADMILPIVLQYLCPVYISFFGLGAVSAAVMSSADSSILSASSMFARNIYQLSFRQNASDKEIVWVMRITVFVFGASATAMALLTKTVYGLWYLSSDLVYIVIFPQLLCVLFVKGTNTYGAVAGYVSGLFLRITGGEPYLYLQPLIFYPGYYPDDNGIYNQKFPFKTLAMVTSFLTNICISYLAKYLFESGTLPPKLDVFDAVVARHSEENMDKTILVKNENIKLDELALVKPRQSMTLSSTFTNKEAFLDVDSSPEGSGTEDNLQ

[2] = system: INS1; assay: beta cell apoptosis inhibitors, cytokine rescue, dose response, luminescence, retest (AID 449756); assay type: functional, cell-based; conditions: Rattus norvegicus;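 also: cell death triggered by IL-1 beta plus TNF-alpha plus IFN-gamma mixture; protective hits raise ATP signal compared with cytokine alone wells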
[3] = Vero E6 cell cytotoxicity, dose response, cytotoxicity control for non-replicating M. tuberculosis project, secondary assay (AID 492998); assay type: functional, VeroE6; conditions: Vero C1008
[4] = THP-1 cell cytotoxicity, dose response, cytotoxicity control for non-replicating M. tuberculosis project (AID 489025); assay type: functional
[5] = HepG2 cell cytotoxicity, dose response, cytotoxicity control for non-replicating M. tuberculosis project (AID 489018); assay type: functional; conditions: Mycobacterium tuberculosis
[6] = cells; assay type: functional, cell-based
[7] = cells; assay type: functional
[8] = cells; assay type: functional, cell-based; remark: listed apart in the source
[9] = biological target: Cytochrome P450 3A4 (Homo sapiens, UniProt P08684); conditions: Potency;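 also: confirmatory qHTS run detecting inhibitors and substrates of CYP3A4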
[10] = biological target: T2, Aminopeptidase N (Plasmodium falciparum FcB1/Columbia, UniProt O96935); assay: P. falciparum M1AAP inhibitors, biochemical, fluorogenic H-Leu-NHMec substrate, 1536-well (AID 1445); parameters: species or system Plasmodium falciparum 3D7, 3D7
T2 sequence (O96935 whole entry): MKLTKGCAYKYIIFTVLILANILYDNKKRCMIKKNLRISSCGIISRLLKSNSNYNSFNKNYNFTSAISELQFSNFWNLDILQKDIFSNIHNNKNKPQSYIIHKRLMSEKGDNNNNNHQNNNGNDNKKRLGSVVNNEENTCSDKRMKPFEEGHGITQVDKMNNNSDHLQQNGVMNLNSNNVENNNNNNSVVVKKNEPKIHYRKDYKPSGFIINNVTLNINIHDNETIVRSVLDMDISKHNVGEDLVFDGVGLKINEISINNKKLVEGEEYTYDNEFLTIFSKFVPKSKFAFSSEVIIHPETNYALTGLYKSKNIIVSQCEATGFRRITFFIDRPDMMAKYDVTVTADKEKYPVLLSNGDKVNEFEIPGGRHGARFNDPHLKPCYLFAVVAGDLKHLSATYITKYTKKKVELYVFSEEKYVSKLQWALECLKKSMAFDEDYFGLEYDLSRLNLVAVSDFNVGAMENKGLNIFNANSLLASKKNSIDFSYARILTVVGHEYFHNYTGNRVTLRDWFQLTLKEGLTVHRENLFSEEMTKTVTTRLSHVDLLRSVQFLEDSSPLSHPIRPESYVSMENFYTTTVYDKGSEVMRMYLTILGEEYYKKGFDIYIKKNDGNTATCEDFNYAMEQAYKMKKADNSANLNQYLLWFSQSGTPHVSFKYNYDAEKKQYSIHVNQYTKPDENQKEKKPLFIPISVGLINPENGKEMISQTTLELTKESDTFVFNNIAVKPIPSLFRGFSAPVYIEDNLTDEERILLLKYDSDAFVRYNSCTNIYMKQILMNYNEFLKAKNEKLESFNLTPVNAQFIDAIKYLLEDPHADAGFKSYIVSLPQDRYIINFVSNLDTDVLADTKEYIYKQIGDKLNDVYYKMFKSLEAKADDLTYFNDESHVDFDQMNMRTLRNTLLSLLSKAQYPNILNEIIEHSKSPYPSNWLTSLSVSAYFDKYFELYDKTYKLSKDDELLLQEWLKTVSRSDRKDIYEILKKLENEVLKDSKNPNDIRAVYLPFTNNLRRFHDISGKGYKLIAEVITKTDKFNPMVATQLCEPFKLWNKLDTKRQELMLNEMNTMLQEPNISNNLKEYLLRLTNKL

[11] = biological target: Genome polyprotein (dengue virus type 2, UniProt P29990); assay: Dengue-2 NS5 methyltransferase inhibitors, primary screen, biochemical, confirmation dose response (AID 588689); assay type: functional
[12] = biological target: T3, Carboxy-terminal domain RNA polymerase II polypeptide A small phosphatase 1 (Homo sapiens, UniProt Q9GZU7); assay: inhibitors of CTDSP1, concentration-response testing, biochemical assay, absorbance-based, actives from ultra-high-throughput screening (AID 540297); assay type: functional
T3 sequence (Q9GZU7 whole entry): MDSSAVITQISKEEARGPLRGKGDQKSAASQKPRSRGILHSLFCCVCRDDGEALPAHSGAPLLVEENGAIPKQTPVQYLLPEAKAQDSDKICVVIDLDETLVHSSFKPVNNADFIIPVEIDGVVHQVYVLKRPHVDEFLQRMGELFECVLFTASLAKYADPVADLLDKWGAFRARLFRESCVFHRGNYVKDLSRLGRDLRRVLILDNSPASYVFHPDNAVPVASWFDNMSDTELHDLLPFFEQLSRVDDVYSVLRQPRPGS

[13] = biological target: Induced myeloid leukemia cell differentiation protein Mcl-1 (Homo sapiens, UniProt Q07820); assay type: functional
[14] = biological target: T4, Short transient receptor potential channel 4 (Mus musculus, UniProt Q9QUQ5); assay: mouse TRPC4 channel activators, dose response, cell-based, HEK293 TRPC4/mu-opioid, Fluo-4 calcium (AID 434937); assay type: functional
T4 sequence (Q9QUQ5 whole entry): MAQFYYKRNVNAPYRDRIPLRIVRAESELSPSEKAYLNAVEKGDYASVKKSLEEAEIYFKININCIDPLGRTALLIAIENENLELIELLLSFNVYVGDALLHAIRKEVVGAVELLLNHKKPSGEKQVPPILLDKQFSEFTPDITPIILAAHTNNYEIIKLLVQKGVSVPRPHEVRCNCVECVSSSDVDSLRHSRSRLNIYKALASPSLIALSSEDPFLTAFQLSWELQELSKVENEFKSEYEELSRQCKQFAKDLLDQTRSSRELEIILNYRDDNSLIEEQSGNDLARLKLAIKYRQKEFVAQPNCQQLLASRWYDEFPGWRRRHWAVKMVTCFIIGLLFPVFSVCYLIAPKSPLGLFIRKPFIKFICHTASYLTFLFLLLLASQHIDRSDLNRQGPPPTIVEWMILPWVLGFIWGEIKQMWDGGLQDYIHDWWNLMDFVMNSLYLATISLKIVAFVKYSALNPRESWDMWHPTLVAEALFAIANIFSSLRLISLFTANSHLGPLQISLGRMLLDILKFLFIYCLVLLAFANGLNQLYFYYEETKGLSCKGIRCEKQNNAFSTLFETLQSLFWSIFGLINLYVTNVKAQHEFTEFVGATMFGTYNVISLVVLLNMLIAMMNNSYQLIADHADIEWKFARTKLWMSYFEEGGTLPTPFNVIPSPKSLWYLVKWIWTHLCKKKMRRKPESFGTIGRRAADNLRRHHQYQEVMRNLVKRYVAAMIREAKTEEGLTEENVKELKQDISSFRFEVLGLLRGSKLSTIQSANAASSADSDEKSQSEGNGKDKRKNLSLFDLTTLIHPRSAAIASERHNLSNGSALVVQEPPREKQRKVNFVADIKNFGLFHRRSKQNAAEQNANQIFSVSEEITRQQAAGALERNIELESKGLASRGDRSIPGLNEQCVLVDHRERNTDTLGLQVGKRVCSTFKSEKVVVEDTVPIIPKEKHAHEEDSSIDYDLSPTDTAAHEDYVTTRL

[15] = system: Streptococcus sp. 'group A'; assay: growth inhibition of control SK(-) GAS strain, dose response, counter-screen for streptokinase expression inhibitor project, luminescence, kanamycin, BacTiterGlo, confirmation (AID 1900); assay type: functional, organism-based
[16] = system: Streptococcus; assay: Group A Streptococcus viability loss, dose response, counter-screen for streptokinase expression inhibitor project, luminescence, BacTiterGlo (AID 1915); assay type: functional, organism-based;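 also: potency for reduction of bacterial viability or growth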
[17] = biological target: T5, Fatty acid synthase (Homo sapiens, UniProt P49327); assay: FAS thioesterase domain inhibitors, dose response, biochemical, kinetic fluorescence intensity (AID 624326); assay type: functional;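 also: rate of fluorescence rise from hydrolysis of a fluorogenic O-methyl fluorescein ester substrate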
[18] = biological target: Nonstructural protein 1 (Influenza A virus, UniProt Q194T2); assay type: functional, Influenza A virus (A/California/07/2009(H1N1))
[19] = biological target: T5, Fatty acid synthase; assay: FAS thioesterase domain inhibitors, dose response, biochemical, endpoint fluorescence intensity, uHTS hits (AID 624327); assay type: functional;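 also: fluorescence from hydrolysis of an O-methyl fluorescein acyl ester substrate by the enzyme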
[20] = LGR2 antagonists, dose response, cell-based, HEK293, CRE-luciferase reporter, cherry pick, set 2 (AID 743343); assay type: functional;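 also: transfected cells were stimulated with diluted bursicon conditioned medium after compound addition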
[21] = biological target: Paired box protein Pax-8 (Homo sapiens, UniProt Q06710); assay: inhibitors of PAX8-driven TPO luciferase reporter, dose response, RMG-I cells, cherry-pick (AID 687027); assay type: functional, cell-based;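 also: luciferase reporter driven by Pax8 target thyroperoxidase promoter measured by SteadyGlo luminescence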
[22] = cytotoxicity in OVCAR8 ovarian cancer cells, dose response, PAX8 project, cell-based, plate reader, dry powder samples (AID 743197); assay type: functional; conditions: OVCAR-8

Cytochrome P450 3A4, sequence (P08684 whole entry): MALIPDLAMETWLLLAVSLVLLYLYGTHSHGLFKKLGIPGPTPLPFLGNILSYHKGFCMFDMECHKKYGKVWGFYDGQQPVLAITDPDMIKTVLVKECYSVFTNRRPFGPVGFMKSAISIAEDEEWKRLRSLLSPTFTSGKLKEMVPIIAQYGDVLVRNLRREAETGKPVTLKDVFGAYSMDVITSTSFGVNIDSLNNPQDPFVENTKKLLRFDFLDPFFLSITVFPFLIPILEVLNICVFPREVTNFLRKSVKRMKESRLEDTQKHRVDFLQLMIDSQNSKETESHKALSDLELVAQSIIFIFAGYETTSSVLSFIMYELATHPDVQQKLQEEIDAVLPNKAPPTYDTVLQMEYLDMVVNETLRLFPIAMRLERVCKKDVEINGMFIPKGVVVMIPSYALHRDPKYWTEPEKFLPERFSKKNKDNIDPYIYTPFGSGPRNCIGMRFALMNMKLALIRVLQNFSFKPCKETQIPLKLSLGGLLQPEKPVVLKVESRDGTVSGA
T5 sequence (P49327 whole entry, the tested form may be a part): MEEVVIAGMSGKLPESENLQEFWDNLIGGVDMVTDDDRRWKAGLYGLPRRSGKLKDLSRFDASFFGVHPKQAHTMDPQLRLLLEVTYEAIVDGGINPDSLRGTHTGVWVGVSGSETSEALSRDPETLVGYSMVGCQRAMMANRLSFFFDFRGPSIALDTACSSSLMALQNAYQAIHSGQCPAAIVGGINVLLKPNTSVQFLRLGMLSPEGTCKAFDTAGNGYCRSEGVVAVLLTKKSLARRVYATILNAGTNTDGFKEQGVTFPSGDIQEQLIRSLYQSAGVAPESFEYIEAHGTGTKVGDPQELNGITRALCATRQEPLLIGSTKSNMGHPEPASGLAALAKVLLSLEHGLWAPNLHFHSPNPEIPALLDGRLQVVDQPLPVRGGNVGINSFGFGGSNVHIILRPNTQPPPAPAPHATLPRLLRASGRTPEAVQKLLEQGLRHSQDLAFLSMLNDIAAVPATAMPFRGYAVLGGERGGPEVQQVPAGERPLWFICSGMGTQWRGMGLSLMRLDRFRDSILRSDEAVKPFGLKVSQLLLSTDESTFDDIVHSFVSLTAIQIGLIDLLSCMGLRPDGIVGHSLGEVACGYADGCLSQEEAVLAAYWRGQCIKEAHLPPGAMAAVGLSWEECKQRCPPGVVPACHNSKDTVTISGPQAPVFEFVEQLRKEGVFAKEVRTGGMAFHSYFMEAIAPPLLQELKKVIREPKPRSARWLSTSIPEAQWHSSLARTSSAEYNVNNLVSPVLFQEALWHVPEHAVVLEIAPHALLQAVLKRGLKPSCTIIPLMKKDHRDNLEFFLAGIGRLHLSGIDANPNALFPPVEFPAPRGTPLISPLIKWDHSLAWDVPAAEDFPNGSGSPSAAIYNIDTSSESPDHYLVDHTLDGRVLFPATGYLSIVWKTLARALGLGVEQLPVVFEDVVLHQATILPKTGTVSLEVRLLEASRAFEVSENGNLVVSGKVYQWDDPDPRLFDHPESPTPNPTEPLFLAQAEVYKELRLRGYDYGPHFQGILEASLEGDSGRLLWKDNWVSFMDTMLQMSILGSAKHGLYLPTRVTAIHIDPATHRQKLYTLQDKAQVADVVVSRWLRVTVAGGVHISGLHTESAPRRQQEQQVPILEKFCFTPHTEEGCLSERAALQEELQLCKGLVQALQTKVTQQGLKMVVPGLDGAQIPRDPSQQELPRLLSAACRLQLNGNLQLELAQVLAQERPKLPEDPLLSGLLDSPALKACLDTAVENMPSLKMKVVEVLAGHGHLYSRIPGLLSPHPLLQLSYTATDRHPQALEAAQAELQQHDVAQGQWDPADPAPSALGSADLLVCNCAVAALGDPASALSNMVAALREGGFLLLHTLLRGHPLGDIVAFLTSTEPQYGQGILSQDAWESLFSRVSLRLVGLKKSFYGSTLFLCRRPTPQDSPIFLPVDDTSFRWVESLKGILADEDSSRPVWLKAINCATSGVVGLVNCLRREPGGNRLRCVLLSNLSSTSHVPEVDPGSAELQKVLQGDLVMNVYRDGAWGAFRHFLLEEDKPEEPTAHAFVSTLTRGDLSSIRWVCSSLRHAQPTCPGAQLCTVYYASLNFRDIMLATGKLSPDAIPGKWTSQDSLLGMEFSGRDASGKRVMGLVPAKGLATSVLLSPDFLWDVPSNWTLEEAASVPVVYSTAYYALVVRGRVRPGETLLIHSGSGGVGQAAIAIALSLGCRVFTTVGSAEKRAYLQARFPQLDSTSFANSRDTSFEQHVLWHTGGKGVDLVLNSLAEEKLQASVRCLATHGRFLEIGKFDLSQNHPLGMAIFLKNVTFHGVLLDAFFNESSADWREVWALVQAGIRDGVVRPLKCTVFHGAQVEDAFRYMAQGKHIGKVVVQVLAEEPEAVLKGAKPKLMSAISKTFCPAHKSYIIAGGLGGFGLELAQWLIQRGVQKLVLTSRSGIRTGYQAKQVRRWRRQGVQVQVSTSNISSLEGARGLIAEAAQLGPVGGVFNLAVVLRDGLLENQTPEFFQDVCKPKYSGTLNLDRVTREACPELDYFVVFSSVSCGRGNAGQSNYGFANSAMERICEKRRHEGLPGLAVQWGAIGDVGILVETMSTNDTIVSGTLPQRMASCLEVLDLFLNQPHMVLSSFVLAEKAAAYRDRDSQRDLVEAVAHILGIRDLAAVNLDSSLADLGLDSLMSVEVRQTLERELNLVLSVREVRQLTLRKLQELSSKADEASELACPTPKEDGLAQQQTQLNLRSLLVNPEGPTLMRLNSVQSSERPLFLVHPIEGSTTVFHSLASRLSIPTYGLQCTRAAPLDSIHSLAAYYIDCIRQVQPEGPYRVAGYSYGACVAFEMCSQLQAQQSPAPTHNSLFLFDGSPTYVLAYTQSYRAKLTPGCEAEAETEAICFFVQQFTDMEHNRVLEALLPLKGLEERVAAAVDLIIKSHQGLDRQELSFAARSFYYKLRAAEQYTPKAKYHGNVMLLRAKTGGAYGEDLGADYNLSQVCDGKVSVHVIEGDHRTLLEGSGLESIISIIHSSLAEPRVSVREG
Genome polyprotein, sequence (P29990 2492-3391 limits assumed): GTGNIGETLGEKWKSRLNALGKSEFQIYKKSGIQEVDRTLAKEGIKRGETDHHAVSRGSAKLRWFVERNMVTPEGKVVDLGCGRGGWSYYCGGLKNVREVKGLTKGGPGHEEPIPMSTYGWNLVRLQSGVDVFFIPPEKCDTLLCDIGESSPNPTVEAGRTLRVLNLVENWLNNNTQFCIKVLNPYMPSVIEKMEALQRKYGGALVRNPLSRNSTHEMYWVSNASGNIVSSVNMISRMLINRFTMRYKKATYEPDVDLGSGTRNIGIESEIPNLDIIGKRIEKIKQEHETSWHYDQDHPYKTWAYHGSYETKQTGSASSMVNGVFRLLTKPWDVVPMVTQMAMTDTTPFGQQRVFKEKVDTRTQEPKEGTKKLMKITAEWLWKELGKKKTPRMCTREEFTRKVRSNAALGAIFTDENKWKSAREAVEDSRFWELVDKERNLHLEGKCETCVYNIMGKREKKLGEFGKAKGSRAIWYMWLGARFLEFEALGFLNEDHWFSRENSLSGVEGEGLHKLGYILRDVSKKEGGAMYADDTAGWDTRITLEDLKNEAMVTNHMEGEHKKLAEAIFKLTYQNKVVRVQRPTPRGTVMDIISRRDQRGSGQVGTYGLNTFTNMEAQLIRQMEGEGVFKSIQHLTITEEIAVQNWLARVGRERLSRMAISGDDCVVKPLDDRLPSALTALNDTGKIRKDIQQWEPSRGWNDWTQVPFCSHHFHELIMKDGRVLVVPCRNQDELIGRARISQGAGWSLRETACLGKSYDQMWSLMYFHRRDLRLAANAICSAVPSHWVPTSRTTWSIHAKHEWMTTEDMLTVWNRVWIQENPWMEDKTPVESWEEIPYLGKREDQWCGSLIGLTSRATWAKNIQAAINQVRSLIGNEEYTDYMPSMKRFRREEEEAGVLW
Paired box protein Pax-8, sequence (Q06710 whole entry): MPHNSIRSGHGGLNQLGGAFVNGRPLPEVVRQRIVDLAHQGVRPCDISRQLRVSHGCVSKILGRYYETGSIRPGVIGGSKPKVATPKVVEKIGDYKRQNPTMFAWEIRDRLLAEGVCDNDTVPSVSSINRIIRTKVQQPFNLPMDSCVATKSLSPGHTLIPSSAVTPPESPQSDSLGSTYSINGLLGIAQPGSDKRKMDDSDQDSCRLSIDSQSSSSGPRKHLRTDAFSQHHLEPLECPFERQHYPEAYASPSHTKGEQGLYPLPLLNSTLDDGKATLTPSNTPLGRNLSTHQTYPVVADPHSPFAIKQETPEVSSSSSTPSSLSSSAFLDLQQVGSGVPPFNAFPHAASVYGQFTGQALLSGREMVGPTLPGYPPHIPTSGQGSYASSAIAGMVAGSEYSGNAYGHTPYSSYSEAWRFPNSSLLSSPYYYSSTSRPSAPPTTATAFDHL
Nonstructural protein 1, sequence (Q194T2 whole entry, the tested form may be a part): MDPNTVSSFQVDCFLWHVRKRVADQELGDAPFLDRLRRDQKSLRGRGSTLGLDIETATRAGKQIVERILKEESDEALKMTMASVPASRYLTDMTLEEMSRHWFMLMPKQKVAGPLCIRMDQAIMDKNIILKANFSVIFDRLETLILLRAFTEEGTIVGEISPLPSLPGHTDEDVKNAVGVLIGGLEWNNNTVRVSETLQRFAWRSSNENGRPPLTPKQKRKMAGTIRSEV
Induced myeloid leukemia cell differentiation protein Mcl-1, sequence (Q07820 whole entry): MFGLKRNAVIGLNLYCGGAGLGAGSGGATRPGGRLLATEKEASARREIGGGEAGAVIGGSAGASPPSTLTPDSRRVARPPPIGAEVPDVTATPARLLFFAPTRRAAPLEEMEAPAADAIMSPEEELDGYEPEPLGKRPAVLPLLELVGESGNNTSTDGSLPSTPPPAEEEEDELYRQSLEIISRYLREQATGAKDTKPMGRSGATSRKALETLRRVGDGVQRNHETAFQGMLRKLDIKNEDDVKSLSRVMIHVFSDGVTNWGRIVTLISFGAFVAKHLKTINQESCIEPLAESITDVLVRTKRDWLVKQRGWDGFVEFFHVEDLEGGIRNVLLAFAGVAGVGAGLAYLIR

Cc1ccc(-n2cc(CN3CCN(Cc4nccn4C)CC3)c(-c3cccc(C)c3)n2)cc1
IC50 [1]: 10.5 µM (active)

Oc1ccccc1/C=N/Nc1ncc(Br)cn1
AC50 [2]: 2.77 µM (active) | CC50 [3]: 3.26 µM (active) | CC50 [4]: 6.62 µM (active) | CC50 [5]: > 20 µM (active) | EC50 [6]: 7.46 µM (active) | IC50 [7]: 7.9 µM (active) | EC50 [8]: 23 µM (active)

CCCn1c(C)nc2c(N(CCOC)CCOC)nc(C)nc21
AC50 [9]: 15.8 µM (inconclusive)

Cc1ccc(/C=C2\SC(NS(=O)(=O)c3cccs3)=NC2=O)cc1
IC50 [10]: 33.1 µM (active) | IC50 [11]: 71.5 µM (active)

CCOC(=O)C(Cc1ccc(O)cc1)NC(C)=O (stereo unspecified) [ACETYL TYROSINE ETHYL ESTER]
AC50 [9]: 25.1 µM (inconclusive)

CC(C)(C)CC(C)(C)c1ccc(OCCO)cc1 [TRITON X]
AC50 [9]: 31.6 µM (inconclusive)

Cc1ccccc1N(CC(=O)NC(C)(C)C)C(=O)C[S+]([O-])CC(=O)Nc1ccc2c(c1)OCO2 (stereo unspecified)
IC50 [10]: 79.3 µM (active)

Cc1ccc(NC(=O)CN2C(=O)N/C(=C/c3cc(C)n(-c4ccc(C(=O)O)cc4)c3C)C2=O)cc1
IC50 [12]: 7.93 µM (active) | IC50 [13]: 4.55 µM (active)

COc1ccccc1C(=O)NNC(=S)NC(=O)c1sc2ccccc2c1Cl
EC50 [14]: 5.31 µM (active) | IC50 [1]: 14.5 µM (active) | EC50 [15]: 0.072 µM (active) | EC50 [16]: 0.878 µM (active)

Cn1c(SCC(=O)Nc2nncs2)nnc1C1CC1
IC50 [12]: 4.69 µM (active)

O=C(NC1CCN(C(=S)NCc2ccco2)CC1)c1cccc(F)c1
IC50 [10]: 79.9 µM (active)

O=C(Cn1cnc([N+](=O)[O-])n1)N/N=C/c1cc(Cl)ccc1O
IC50 [17]: 2.94 µM (active) | IC50 [18]: 12.3 µM (active) | IC50 [10]: 13.3 µM (active) | EC50 [6]: 14.5 µM (active) | IC50 [19]: 1.22 µM (active) | EC50 [8]: > 350 µM (not active)

COc1ccc(NS(=O)(=O)c2cccc(C(=O)N/N=C/c3c(F)c(F)c(F)c(F)c3F)c2)cc1
IC50 [12]: 10.7 µM (active)

O=S1(=O)CCOC[C@H](CC2CCCCC2)N1Cc1ccccc1F
AC50 [20]: 53.7 µM (active)

Oc1ccc2c(c1)OCO2
AC50 [9]: 15.8 µM (inconclusive)

CCCOc1ccc(C(CC(=O)O)NC(=O)c2sc3ccccc3c2Cl)cc1 (stereo unspecified)
IC50 [1]: 7.59 µM (active)

Nc1cc(C(=O)OCC(=O)c2ccc(CC(=O)N3CCOCC3)s2)ccc1Cl
IC50 [12]: 5.84 µM (active)

CCCN1[C@H](C(=O)N2CCOCC2)[C@@H](CO)[C@@H]2Cn3c(ccc(/C=C/c4ccccc4)c3=O)[C@@H]21
AC50 [21]: 48.2 µM (active) | AC50 [22]: > 70 µM (inactive)

Cc1cccc(C(=O)NC2CCN(C(=S)NCc3ccco3)CC2)c1
IC50 [10]: 113 µM (active)

COc1c2c(c(CC=C(C)C)c3oc(=O)c(-c4ccc(O)cc4)c(O)c13)OC(C)(C)C=C2 [LONCHOCARPIC ACID]
AC50 [9]: 12.6 µM (inconclusive)

O=C(CN1C(=O)S/C(=C\c2cccc(Cl)c2)C1=O)NCCCn1ccnc1
IC50 [1]: 20.9 µM (active)

Cc1cc(NS(=O)(=O)c2ccc(NC(=O)CSc3nc(O)c4c(C)c(C)sc4n3)cc2)no1
IC50 [10]: 35.8 µM (active) | IC50 [11]: 81.9 µM (active)

COCCNC(=O)C1(CC(C)C)C=CCN1C(=O)c1ccccc1 (stereo unspecified)
AC50 [9]: 20 µM (inconclusive)
